Source: patent publication US6300321A, “Compounds, preparation and use for transferring nucleic acids into cells” (Aventis Pharma S.A., priority 1997, dated 2001)

How the values were obtained:
[1] = tested on: NIH3T3, HepG2 and HeLa cells; assay: In vitro transfection in the absence and in the presence of serum proteins; assay type: cell-based; details: with versus without serum proteins; FIG. 3
Procedure: FIG. 3: Measurement of the in vitro efficiency of transfection of compound 1 according to the invention into NIH3T3, HepG2 and HeLa cells, in the absence (white bars) and in the presence (black bars) of serum proteins and in comparison with its amine-containing homologue (RPR120535).
(§1) The measurements were carried out at different charge ratios which are plotted on the x-axis. The expression of luciferase is plotted on the y-axis and is expressed in RLU (Relative Light Unit) per well.
(§2) The nucleic acid used is the plasmid pXL2774 (WO 97/10343) comprising the gene encoding luciferase under the control of the human cytomegalovirus (CMV) promoter.
The nucleic acid solutions are diluted to 20 μg/ml in physiological saline (0.15 M sodium chloride NaCl). […]
The cells are washed with twice 500 μl of medium free of serum proteins and grown again either in serum-free medium (transfection in the absence of serum), or in complete medium (transfection in the presence of serum). […] When the cells are transfected in the absence of serum, the growth medium is supplemented 2 hours after transfection with the appropriate quantity of serum.
The transfection efficiency is evaluated 48 hours after the transfection by measuring the expression of luciferase according to the recommendations given for the use of the Promega kit [Luciferase Assay System]. […]

[2] = tested on: HepG2 cells; assay: Toxicity of the transfectant mixtures (protein concentrations in the cell lysates); assay type: cell-based
Procedure: (§3) The cells are cultured under appropriate conditions in 24-well microplates (2 cm^2 /well) and are transfected while they are in the exponential growth phase and at 50-70% confluence.
(§4) The cells are washed with twice 500 μl of medium free of serum proteins and grown again either in serum-free medium (transfection in the absence of serum), or in complete medium (transfection in the presence of serum). 50 μl of transfectant mixture [i.e. 0.5 μg DNA/well] are added to the cells [3 wells/condition DNA vector]. When the cells are transfected in the absence of serum, the growth medium is supplemented 2 hours after transfection with the appropriate quantity of serum.
(§5) The transfection efficiency is evaluated 48 hours after the transfection by measuring the expression of luciferase according to the recommendations given for the use of the Promega kit [Luciferase Assay System]. The toxicity of the transfectant mixtures is estimated by a measurement of the protein concentrations in the cell lysates.
(§6) Compound 1 was used in comparison with the cationic lipid RPR120535 (TFA salt) [described in patent application WO 97/18185 incorporated into the present application by way of reference] as DNA vector to transfect three different cell lines: NIH3T3 cells, HepG2 cells and HeLa cells. […] The transfection efficiency for compound 1 and for the cationic lipid for comparison in the three cell types is represented in FIG. 2, for nmol of compound/μg of DNA ratios of between 3 and 12.

[3] = tested on: NIH3T3 cells; assay: as above; assay type: cell-based
Procedure: as §3, §4, §5, §6

[4] = tested on: HeLa cells; assay: as above; assay type: cell-based
Procedure: as §3, §4, §5, §6

[5] = tested on: HepG2 cells; assay: In vitro transfection of luciferase plasmid pXL2774; assay type: cell-based
Procedure: (§7) FIG. 2: Measurement of the in vitro efficiency of transfection of compound 1 according to the invention into NIH3T3, HepG2 and HeLa cells, in the absence of serum proteins and in comparison with its amine-containing homologue (RPR120535).
as §1, §2
(§8) The nucleic acid solutions are diluted to 20 μg/ml in physiological saline (0.15 M sodium chloride NaCl).
(§9) The products described in the invention are dissolved in water at a concentration varying from 60 to 240 μM and mixed volume for volume with the DNA solution; the final saline concentration is 75 mM.
as §3, §4, §5, §6

[6] = tested on: NIH3T3 cells; assay: as above; assay type: cell-based; details: FIG. 2, absence of serum proteins, 48 hours
Procedure: as §7, §1, §2, §8, §9, §3, §4, §5, §6

[7] = tested on: HeLa cells; assay: as above; assay type: cell-based
Procedure: as §7, §1, §2, §8, §9, §3, §4, §5, §6

[8] = tested on: DNA; assay: Physicochemical phase (A, B or C) of the nucleolipid complexes as a function of the charge ratio; details: micellar form and in combination with a neutral colipid (DOPE and cholesterol)
Procedure: FIG. 8: Tables indicating the physicochemical phase (phase A, B or C) in which exist the nucleolipid complexes formed with compound 2 in comparison with its amine-containing analogue, as a function of the charge ratio.
The determination of the phases was carried out for compound 2 and for its amine-containing homologue in micellar form and in combination with a neutral colipid (DOPE and cholesterol).
The nucleic acid used is the plasmid pXL3031, as described in the preceding example.
The complexes are prepared at concentrations of 0.25 mg of DNA/ml with an appropriate quantity of lipid as defined in the present invention in the desired charge ratio. The complex is prepared in a medium containing 5% glucose and a 20 mM solution of sodium chloride. 50 μl of nucleolipid complex are then diluted 20-fold in 950 μl of solution containing 5% glucose and a 20 mM solution of sodium chloride.
The size of the complexes was determined by measuring the hydrodynamic diameter by dynamic light scattering with the aid of a Coulter N4+ apparatus.
The complexes formed are negatively charged overall, which makes the crossing of cell membranes difficult. It is thus preferable for the values not to be situated in this region in order to transfect the DNA.
Phase B for which the DNA is completely saturated with the cationic lipid and the complexes are neutral or slightly positive overall. The ionic repulsions being […], this phase is unstable. A phenomenon of "cross-linking" may occur, leading to precipitation of the complexes. The complexes in this state cannot therefore be used as injection.
Phase C for which the DNA is oversaturated with the lipid and the complexes are therefore positive overall. […] The complexes in phase C are therefore particularly suitable for use for the transfer of nucleic acids into cells.
The tables in FIGS. 8, 9, 10 and 11 compare the phases as a function of the charge ratios between the compounds of the invention and their amine-containing analogues, that is to say the cationic lipids whose amidine or guanidine function is replaced by an amino function. It is observed that phase B is shifted towards much lower charge ratios. Thus, the incorporation of amidine functions into the cationic head contributes to the increase in the affinity of the compounds for DNA. This constitutes an important property of the compounds of the invention because the complexes which they form with DNA may be used in phase C without as a result being at excessively high charge ratios, with the beneficial effects which result therefrom on toxicity.

[9] = FIG. 2, absence of serum proteins, 48 hours

For CCCCCCCCCCCCCCCCCCN(CCCCCCCCCCCCCCCCCC)C(=O)CNC(=O)CNCCCNCCCCNCCCN [RPR120535, reference compound], the “transfection levels with or without serum proteins” value [1] was “a strong inhibition is observed due to the presence of the serum proteins”.

For CCCCCCCCCCCCCCCCCCN(CCCCCCCCCCCCCCCCCC)C(=O)CNC(=O)CNCCCNCCCCNCCCNC(=N)N [compound 1, N-dioctadecylcarbamoylmethyl-2-{3-[4-(3-guanidinopropylamino)butylamino]propylamino}acetamide], the “toxicity of the transfectant mixture” value [2] was “no significant toxicity was detected”, the “toxicity of the transfectant mixture” value [3] was “no significant toxicity was detected” and the “toxicity of the transfectant mixture” value [4] was “no significant toxicity was detected”. For the same compound, the “ratio of cationic lipid to DNA giving the maximum transfection efficiency” value (“ratio of cationic lipid” for short) [5, 9] was 9 nanomoles cationic lipid/μg of DNA, the “luciferase expression level relative to the product tested in comparison (RPR120535)” value ([5]; absence of serum) was 2 to 4 times higher and the “ratio of cationic lipid” value [6] was 6 nanomoles cationic lipid/μg of DNA. The “ratio of cationic lipid” value [7, 9] was 9 nanomoles cationic lipid/μg of DNA, the “luciferase expression level relative to the product tested in comparison (RPR120535)” value ([7]; absence of serum) was 2 to 4 times higher and the “transfection levels with or without serum proteins” value [1] was “the transfection levels with or without serum proteins are the same”.

In the case of CCCCCCCCCCCCCCCCCCN(CCCCCCCCCCCCCCCCCC)C(=O)CNCCN(CCNC(=N)N)CCNC(=N)N [compound 2, 2-{2-[bis(2-guanidinoethyl)amino]ethylamino}-N,N-dioctadecylacetamide], the “shift of the unstable phase B in comparison with the amine-containing analogue” value (“shift … with the amine-containing analogue” below) [8] is reported as “a shift is observed from the unstable phase B towards lower charge ratios”.

In the case of CCCCCCCCCCCCCCN(CCCCCCCCCCCCCC)C(=O)CNC(=O)CNCCCNCCCCNCCCNC(=N)N [compound 3, N-ditetradecylcarbamoylmethyl-2-{3-[4-(3-guanidinopropylamino)butylamino]propylamino}acetamide], the “shift … with the amine-containing analogue” value [8] is reported as “a shift is observed from the unstable phase B towards lower charge ratios”.

For CCCCCCCCCCCCCCN(CCCCCCCCCCCCCC)C(=O)CNC(=O)CN(CCCCNCCCNC(=N)N)CCCNC(=N)N [compound 5, N-ditetradecylcarbamoylmethyl-2-{(3-guanidinopropyl)-[4-(3-guanidinopropylamino)butyl]amino}acetamide], the “shift … with the amine-containing analogue” value [8] was “a shift is observed from the unstable phase B towards lower charge ratios”.

For CCCCCCCCCCCCCCN(CCCCCCCCCCCCCC)C(=O)CNC(=O)CNCCCN(CCCCN(CCCNC(=N)N)CCCNC(=N)N)CCCNC(=N)N [compound 6, 2-{3-[{4-[bis(3-guanidinopropyl)amino]butyl}-(3-guanidinopropyl)amino]-propylamino}-N-ditetradecylcarbamoylmethylacetamide], the “shift … with the amine-containing analogue” value [8] was “a shift is observed from the nstable phase B towards lower charge ratios”.
